Laboratory results taken from PMC5438973 (Frontiers in Psychiatry, 2017).

Assays:
h5-HT1E = molecular target: T1, h5-HT1E (Homo sapiens, UniProt P28566); assay: Radioligand binding, human cloned h5-HT1E; conditions: agonist radioligand, read-out: Affinity, Mean
T1 construct: expressed in transfected cells
Method: (§1) Binding affinities at the serotonin receptors were determined by standard radioligand-binding methods using human cloned receptors as reported in the literature ([14], [15]).

h5-HT1B = molecular target: T2, h5-HT1B (Homo sapiens, UniProt P28222); assay: Radioligand binding, human cloned h5-HT1B; conditions: agonist radioligand, read-out: Affinity, Mean
T2 construct: expressed in transfected cells
T2 sequence (P28222 whole entry): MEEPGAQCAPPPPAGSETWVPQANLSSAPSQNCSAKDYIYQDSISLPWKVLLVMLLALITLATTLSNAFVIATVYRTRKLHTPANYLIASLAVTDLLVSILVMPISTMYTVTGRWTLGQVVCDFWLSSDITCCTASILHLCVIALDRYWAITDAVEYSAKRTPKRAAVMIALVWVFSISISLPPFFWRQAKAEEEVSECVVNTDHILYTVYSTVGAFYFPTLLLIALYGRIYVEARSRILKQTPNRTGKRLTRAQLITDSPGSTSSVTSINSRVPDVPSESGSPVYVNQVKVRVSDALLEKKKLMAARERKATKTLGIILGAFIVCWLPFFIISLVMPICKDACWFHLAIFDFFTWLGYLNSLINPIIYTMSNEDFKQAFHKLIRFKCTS
Method: as §1

Male, NIH Swiss mice [1] = tested on: Male, NIH Swiss mice
h5-HT1D = molecular target: T3, h5-HT1D (Homo sapiens, UniProt P28221); assay: Radioligand binding, human cloned h5-HT1D; conditions: agonist radioligand, read-out: Affinity, Mean
T3 construct: expressed in transfected cells
T3 sequence (P28221 whole entry): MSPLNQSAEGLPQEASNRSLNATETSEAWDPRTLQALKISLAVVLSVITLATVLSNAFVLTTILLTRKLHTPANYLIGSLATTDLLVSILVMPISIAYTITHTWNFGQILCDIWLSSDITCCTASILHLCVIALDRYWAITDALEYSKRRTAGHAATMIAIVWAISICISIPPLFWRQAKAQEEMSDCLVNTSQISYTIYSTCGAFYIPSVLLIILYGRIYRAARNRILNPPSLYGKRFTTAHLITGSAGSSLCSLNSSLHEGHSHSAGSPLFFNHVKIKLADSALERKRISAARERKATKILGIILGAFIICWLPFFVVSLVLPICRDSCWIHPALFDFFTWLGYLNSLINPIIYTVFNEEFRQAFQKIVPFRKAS
Method: as §1

h5-HT4 = molecular target: T4, h5-HT4 (Homo sapiens, UniProt Q13639); assay: Radioligand binding, human cloned h5-HT4; conditions: agonist radioligand, n = 2, read-out: Affinity, Mean
T4 construct: expressed in transfected cells
T4 sequence (Q13639 whole entry): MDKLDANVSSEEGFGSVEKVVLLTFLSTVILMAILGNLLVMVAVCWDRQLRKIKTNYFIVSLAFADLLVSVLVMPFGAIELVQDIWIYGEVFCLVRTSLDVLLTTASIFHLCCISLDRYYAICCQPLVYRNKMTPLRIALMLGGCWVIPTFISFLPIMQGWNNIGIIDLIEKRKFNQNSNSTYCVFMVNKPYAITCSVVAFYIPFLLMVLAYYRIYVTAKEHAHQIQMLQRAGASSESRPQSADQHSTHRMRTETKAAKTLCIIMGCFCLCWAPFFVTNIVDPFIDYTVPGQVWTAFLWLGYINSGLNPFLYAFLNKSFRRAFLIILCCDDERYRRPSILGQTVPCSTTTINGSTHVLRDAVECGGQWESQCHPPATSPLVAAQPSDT
Method: as §1

h5-HT2A [2] = molecular target: T5, h5-HT2A (Homo sapiens, UniProt P28223); assay: Radioligand binding, human cloned h5-HT2A
T5 construct: expressed in transfected cells; host or cells: AV12 cells
T5 sequence (P28223 whole entry): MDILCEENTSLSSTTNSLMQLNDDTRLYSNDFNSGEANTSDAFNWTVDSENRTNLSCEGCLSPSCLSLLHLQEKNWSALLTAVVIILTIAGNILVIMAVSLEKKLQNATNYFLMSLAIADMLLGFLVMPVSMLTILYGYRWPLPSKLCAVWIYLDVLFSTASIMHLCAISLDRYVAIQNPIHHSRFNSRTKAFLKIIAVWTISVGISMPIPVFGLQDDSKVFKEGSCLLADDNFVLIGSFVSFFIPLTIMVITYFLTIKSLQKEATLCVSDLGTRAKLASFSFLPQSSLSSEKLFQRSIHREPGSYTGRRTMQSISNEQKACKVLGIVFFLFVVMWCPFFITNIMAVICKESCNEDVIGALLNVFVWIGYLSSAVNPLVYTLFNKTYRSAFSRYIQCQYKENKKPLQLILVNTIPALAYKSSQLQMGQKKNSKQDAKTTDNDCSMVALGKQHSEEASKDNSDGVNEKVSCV
Method: as §1

Male, NIH Swiss mice [3] = assay: Nestlet-shredding; conditions: 8/dose group
h5-HT7 = molecular target: T6, h5-HT7 (Homo sapiens, UniProt P34969); assay: Radioligand binding, human cloned h5-HT7
T6 construct: expressed in transfected cells
T6 sequence (P34969 whole entry): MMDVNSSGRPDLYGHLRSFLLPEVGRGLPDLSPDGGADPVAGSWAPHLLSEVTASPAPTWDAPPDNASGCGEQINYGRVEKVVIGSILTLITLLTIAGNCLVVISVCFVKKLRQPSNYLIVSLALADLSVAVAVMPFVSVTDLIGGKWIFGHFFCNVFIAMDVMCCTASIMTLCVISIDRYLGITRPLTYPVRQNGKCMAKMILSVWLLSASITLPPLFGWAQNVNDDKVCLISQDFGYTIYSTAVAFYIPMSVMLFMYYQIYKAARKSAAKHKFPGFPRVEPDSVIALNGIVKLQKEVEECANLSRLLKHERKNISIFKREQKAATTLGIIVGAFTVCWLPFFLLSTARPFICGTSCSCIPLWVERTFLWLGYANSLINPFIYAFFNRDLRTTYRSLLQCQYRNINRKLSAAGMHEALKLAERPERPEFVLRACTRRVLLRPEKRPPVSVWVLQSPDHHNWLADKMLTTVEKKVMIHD
Method: as §1

Male, Wistar rats = assay: Isoproterenol-induced drinking; type: in vivo, rat; conditions: 5.6 mg/kg
Method: Male, Wistar rats (different from those rats used in the schedule-induced polydipsia studies) were used. They were 331 ± 11 g at the initiation of this study. Compound 1 (5.6 mg/kg, s.c.) was evaluated for its ability to reduce drinking. (±)-isoproterenol (30 μg/kg, s.c.) was given to induce drinking (n = 5–20 rat/group). Ten minutes after vehicle or (±)-isoproterenol injection, rats were given either vehicle or Compound 1 and a 60 min session began in which the rats in individual housing cages were given access to water 20 min after the second injection. The weight of the water bottle before and after the 60 min period was measured to the nearest 0.1 g. After the experiment, the animals were returned to their living cages with continuous access to food and water.

h5-HT2A [4] = molecular target: T5, h5-HT2A; assay: GTP-γ-[35S] functional assay (SPA), AV12 cells; type: biochemical
Source text: (§2) 5-HT2 receptors are functionally coupled to specific G-proteins. Agonist activation of 5-HT2 G-protein coupled receptors results in the release of GDP from alpha-subunit (G alpha q or G alpha i) of the G-protein and the subsequent binding of GTP. The binding of the stable analog GTP-g-[^35S] is an indicator of receptor activation. Human cloned 5-HT2A, −2B, and −2C receptors were expressed in AV12 cells. GTP-g-[^35S] nucleotide exchange scintillation proximity assay (SPA) was used to measure binding as previously described ([14]).

h5-HT2C = molecular target: T7, h5-HT2C (Homo sapiens, UniProt P28335); assay: GTP-γ-[35S] functional assay (SPA), AV12 cells; type: biochemical
T7 construct: expressed in transfected cells; host or cells: AV12 cells
T7 sequence (P28335 33-458): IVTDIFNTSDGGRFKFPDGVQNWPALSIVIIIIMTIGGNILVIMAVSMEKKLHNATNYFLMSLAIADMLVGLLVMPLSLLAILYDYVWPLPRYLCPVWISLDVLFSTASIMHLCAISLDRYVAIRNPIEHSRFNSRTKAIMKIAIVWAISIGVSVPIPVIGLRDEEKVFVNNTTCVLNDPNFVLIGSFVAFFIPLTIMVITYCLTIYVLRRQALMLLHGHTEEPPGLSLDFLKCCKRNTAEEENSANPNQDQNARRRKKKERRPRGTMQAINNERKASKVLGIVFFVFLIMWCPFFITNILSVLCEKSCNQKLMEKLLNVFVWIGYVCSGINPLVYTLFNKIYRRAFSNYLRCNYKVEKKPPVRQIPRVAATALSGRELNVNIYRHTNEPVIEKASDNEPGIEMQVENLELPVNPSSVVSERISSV
Source text: as §2

h5-HT1F = molecular target: T8, h5-HT1F (Homo sapiens, UniProt P30939); assay: Radioligand binding, human cloned h5-HT1F; conditions: agonist radioligand, read-out: Affinity, Mean
T8 construct: expressed in transfected cells
T8 sequence (P30939 whole entry): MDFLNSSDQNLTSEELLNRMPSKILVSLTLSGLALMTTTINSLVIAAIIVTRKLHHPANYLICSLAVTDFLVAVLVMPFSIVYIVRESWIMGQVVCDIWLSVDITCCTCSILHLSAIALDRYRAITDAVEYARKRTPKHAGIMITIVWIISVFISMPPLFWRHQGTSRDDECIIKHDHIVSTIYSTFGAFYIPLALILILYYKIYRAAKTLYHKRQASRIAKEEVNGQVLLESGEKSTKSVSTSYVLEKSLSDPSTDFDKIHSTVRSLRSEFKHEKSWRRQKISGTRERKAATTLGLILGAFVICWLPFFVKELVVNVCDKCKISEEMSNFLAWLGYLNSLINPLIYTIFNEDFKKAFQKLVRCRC
Method: as §1

h5-HT1A = molecular target: T9, h5-HT1A (Homo sapiens, UniProt P08908); assay: Radioligand binding, human cloned h5-HT1A; conditions: agonist radioligand, read-out: Affinity, Mean
T9 construct: expressed in transfected cells
T9 sequence (P08908 whole entry): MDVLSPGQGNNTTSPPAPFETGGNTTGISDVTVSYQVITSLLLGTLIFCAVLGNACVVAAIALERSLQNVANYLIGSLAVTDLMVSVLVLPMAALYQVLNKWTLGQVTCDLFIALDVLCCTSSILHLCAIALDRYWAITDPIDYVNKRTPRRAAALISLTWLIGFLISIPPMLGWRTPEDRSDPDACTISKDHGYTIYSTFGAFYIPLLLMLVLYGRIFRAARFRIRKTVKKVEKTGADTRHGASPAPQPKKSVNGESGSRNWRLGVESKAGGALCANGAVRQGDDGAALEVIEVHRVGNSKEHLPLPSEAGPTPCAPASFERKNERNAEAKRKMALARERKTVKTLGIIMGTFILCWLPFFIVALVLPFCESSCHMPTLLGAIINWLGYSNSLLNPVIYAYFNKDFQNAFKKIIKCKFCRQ
Method: as §1

h5-HT2B = molecular target: T10, h5-HT2B (Homo sapiens, UniProt P41595); assay: Radioligand binding, human cloned h5-HT2B
T10 construct: expressed in transfected cells; host or cells: AV12 cells
T10 sequence (P41595 whole entry): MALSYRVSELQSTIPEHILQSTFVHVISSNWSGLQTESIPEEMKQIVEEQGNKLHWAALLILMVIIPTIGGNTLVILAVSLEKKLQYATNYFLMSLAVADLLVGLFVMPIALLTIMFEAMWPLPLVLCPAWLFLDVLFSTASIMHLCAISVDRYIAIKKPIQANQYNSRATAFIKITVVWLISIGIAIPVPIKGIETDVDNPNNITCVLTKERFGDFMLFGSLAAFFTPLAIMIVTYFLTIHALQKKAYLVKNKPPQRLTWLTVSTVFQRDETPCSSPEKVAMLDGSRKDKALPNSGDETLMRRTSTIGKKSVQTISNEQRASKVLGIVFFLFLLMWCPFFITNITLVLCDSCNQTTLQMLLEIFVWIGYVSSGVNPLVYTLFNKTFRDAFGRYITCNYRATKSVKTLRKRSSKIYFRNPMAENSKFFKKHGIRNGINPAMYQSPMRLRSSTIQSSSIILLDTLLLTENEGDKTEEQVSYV
Method: as §1

L-Verapamil site = assay: CEREP broad receptor screening panel; type: binding; design: dose or concentration left out as unconfirmed; conditions: CPD 1 (table title), duplicate
Method: (§3) Additional selectivity assessment of CPD 1 was performed at CEREP. Methods are available for the multiple assays utilized at http://www.cerep.fr/cerep/users/pages/catalog/assay/catalog.asp. The specific ligand binding to the receptors is defined as the difference between the total binding and the non-specific binding determined in the presence of an excess of unlabeled ligand.

α1 = assay: CEREP broad receptor screening panel; type: binding; design: dose or concentration left out as unconfirmed; conditions: CPD 1 (table title), duplicate
Method: as §3

[5] = 10 mg/kg, 5 days of consecutive dosing
[6] = GTPgs functional assay, human recombinant cell line

T1 sequence (P28566 whole entry): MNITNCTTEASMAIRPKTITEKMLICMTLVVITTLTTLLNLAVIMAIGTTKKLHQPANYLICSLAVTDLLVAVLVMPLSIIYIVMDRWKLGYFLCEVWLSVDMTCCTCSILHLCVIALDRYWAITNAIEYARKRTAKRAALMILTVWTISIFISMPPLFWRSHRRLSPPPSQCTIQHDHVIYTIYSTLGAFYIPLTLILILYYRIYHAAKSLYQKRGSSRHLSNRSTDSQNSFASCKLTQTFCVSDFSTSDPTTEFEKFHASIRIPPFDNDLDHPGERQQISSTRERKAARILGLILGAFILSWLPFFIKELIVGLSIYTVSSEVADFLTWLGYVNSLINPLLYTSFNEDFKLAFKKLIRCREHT

SMILES: C[C@H]1CN(c2ccc(C(F)(F)F)c3ccoc23)CCN1 [CPD 1, (3S)-3-methyl-1-[4-(trifluoromethyl)-7-benzofuranyl]-piperazine]
- Ki (h5-HT1E): 1040 nM
- Ki (h5-HT1B): 1110 nM
- Effect on marble-burying compared to vehicle over five consecutive days (Male, NIH Swiss mice [1]; [5]): significantly decreased
- Tolerance to suppressant effect on marble-burying with repeated dosing (Male, NIH Swiss mice [1]; [5]): did not produce tolerance
- Marble-burying, minimal effective dose (Male, NIH Swiss mice [1]; 12/dose group): 10 milligrams per kilogram
- Ki (h5-HT1D): 296 nM
- Ki (h5-HT4): 977 nM
- Ki (h5-HT2A [2]; agonist radioligand, h5-HT2A, read-out: Affinity, Mean): 47.2 nM
- selectivity for h5-HT2C over h5-HT2A receptors (h5-HT2A [2]; binding affinities): 22 fold
- Nestlet-shredding, minimal effective dose (Male, NIH Swiss mice [3]): 3 milligrams per kilogram
- Ki (h5-HT7; agonist radioligand, h5-HT7, read-out: Affinity, Mean): > 2000 nM
- inhibition at 2 µM (h5-HT7; at a concentration of 2 µM): < 50%
- Reduction of isoproterenol-induced drinking (Male, Wistar rats; s.c.): 77%
- Effect on normal drinking (Male, Wistar rats; without isoproterenol): did not significantly affect
- Functional activity (kind of agonism) (h5-HT2A [4]; 5-HT2A): partial agonist
- EC50 (h5-HT2A [4]; [6]): 269 ± 19 nM
- Emax (h5-HT2A [4]; [6]): 53 ± 2%
- Functional activity (kind of agonism) (h5-HT2C; 5-HT2C): full agonist
- EC50 (h5-HT2C; [6]): 8.1 ± 0.5 nM
- Emax (h5-HT2C; [6]): 110 ± 1%
- Ki (h5-HT1F): 540 nM
- Ki (h5-HT1A): 205 nM
- Ki (h5-HT2B; agonist radioligand, h5-HT2B, read-out: Affinity, Mean): 104 nM
- selectivity for h5-HT2C over h5-HT2B receptors (h5-HT2B; binding affinities): 50 fold
- % Inhibition (L-Verapamil site): 59%
- % Inhibition (α1): 82%
